Consider `CC1Nc2ccc(-c3cccc([N+](=O)[O-])c3)cc2C1(C)C.Cl` (stereo not shown), for which the melting point was 240 to 241 °C.

These data come from patent US6503939B2, “Combination regimens using 3,3-substituted indoline derivatives” (Wyeth, priority 1999, dated 2003).
